# Source: patent publication US7915276B2, “Berberrubine derivatives having antifungal activities” (priority 2006, dated 2011)
# Columns and labels:
# [1] = biological target: T1, chitin synthase 2 of Saccharomyces cerevisiae ECY38-38A(pAS6) (Saccharomyces cerevisiae, UniProt P14180); assay: In vitro enzyme assay for chitin synthase 2 of Saccharomyces cerevisiae (enzyme 2); format: biochemical; conditions: relative to polyoxin D (50% inhibitory activity = value 5)
# T1 construct: made in house; host or cells: Saccharomyces cerevisiae ECY38-38A (chs1-23 chs2::LEU2 cal1/csd2) carrying plasmid pAS6, grown in galactose medium; 130,000 x g membrane pellet
# Protocol: Crude enzyme was prepared using the recombinant Saccharomyces cerevisiae ECY38-38A(pAS6) (MATa chs1-23 chs2::LEU2 cal 1/csd 2 ura 3-52 trp 1-1 leu 2-2 pAS6) strain, which can produce the chitin synthase 2 only. The strain was inoculated with the YPG culture medium (1% yeast extract, 2% peptone, 2% galactose) and cultured at 30° C. overnight. Then, it was inoculated with a fresh YPG culture medium and cultured for 15-17 hours until the Absorbance at 550 nm reaches 1.0. The cells were collected and suspended in 50 mM Tris-HCl (pH 7.5) buffer containing 5 mM magnesium acetate. After centrifugation at 8,000×g for 10 minutes, the pellets were suspended in the same Tris-HCl buffer solution. The suspension was divided into aliquots in 50 mL conical test tubes. After adding the glass beads, the cells were disrupted by vigorously vortexing with an interval of 30 seconds. The cell residues were removed by centrifuging at 3,000×g for 5 minutes. The supernatant was ultra-centrifuged at 130,000×g for 1 hour. The resultant pellets were collected and suspended in 50 mM Tris-HCl (pH 7.5) containing 33% glycerol, to a final volume of 1.6 mg/g (wet weight) of yeast used. The suspension was divided into aliquots and kept at −70° C. until it is used.
# (§1) The inhibitory activities against the chitin synthase 1 of Candida albicans chs2 Δ chs 3 Δ (abbreviated as ‘enzyme 1’) and the chitin synthase 2 of Saccharomyces cerevisiae ECY38-38A(pAS6)(abbreviated as ‘enzyme 2’) was examined for compound Nos. 1 to 70 compound and polyoxin D, a positive control compound.
# (§2) The inhibitory activity against the chitin synthase 1 prepared from Candida albicans and the chitin synthase 2 prepared from Saccharomyces cerevisiae were examined as follows. A reaction mixture containing 32 mM Tris-HCl (pH 7.5), 2 mM cobalt acetate, 1.1 mM UDP-[U-^14C]-N-acetyl-d-glucosamine (GlcNAc) (400,000 cpm/μmol), 2 μL of trypsin (0.75 mg/mL), 20 μL of each crude enzyme and 14 μL of each test sample was kept at 30° C. for 15 minutes to activate the enzyme. Then, 2 μL of trypsin inhibitor (1.5 mg/mL) was added and the mixture was kept in an ice bath for 10 minutes to deactivate trypsin. 2 μL of 0.8 M N-acetyl-d-glucosamine was added to a total volume of 50 μL and reaction was performed at 30° C. for 90 minutes. The reaction was stopped using 1 mL of 10% TCA solution and the reaction solution was filtered with a GF/C filter and dried at room temperature. After adding 3 mL of a scintillation cocktail solution, the amount of isotopes was measured using a liquid scintillation counter. Percentage inhibition against each enzyme was calculated by the following Equation 1.
# (§3) The control group was not added with a test sample in the reaction mixture and that of the untreated group contained neither the test sample nor the crude enzyme.
# (§4) A 50% inhibitory activity of polyoxin D against the enzyme was given the value 5. A compound having the same inhibitory activity as that of polyoxin D at the same concentration was given the value 5. Compounds having the inhibitory activity at 2-fold, 4-fold, 8-fold and 16-fold higher concentrations than that of polyoxin D were given the values of 4, 3, 2 and 1, respectively. On the other hand, compounds having the inhibitory activity at ½, ¼ and ⅛ lower concentrations than that of polyoxin D were given the values of 6, 7 and 8, respectively.
# [2] = biological target: T2, chitin synthase 1 of Candida albicans chs2 Δ chs 3 Δ (Candida albicans, UniProt P23316); assay: In vitro enzyme assay for chitin synthase 1 of Candida albicans (enzyme 1); format: biochemical; conditions: relative to polyoxin D (50% inhibitory activity = value 5)
# T2 construct: Crude enzyme was prepared using the Candida albicans chs2 Δ chs 3 Δ mutant; endogenous in cells; host or cells: Candida albicans chs2Δ/chs2Δ chs3Δ/chs3Δ mutant; 130,000 x g membrane pellet
# Protocol: Crude enzyme was prepared using the Candida albicans chs2 Δ chs 3 Δ mutant (chs2 Δ::hisG/chs2 Δ::hisG chs3 Δ::hisG/chs3 Δ::hisG) strain, which can only produce the chitin synthase 1. The strain was inoculated with the SDA (Sabouraud dextrose agar) culture medium (4% dextrose, 1% peptone, pH 5.6) and cultured at 30° C. for 15-17 hours until the absorbance at 550nm reaches 0.7. The cells were collected and suspended in a 50 mM Tris-HCl (pH 7.5) buffer solution containing 5 mM magnesium acetate. After centrifugation at 8,000×g for 10 minutes, the pellets were suspended in the same Tris-HCl buffer solution. The suspension was divided into aliquots in 50 mL conical test tubes. After adding glass beads, the cells were disrupted by vigorously vortexing with an interval of 30 seconds. The cell residues were removed by centrifuging at 3,000×g for 5 minutes. The supernatant was ultra-centrifuged at 130,000×g for 1 hour. The resultant pellets were collected and suspended in 50 mM Tris-HCl (pH 7.5) containing 33% glycerol, to a final volume of 1.6 mg/g (wet weight) of yeast used. The suspension was divided into aliquots and kept at −70° C. until it is used.
# as §1, §2, §3, §4
# T2 sequence (P23316 whole entry, stated change not applied): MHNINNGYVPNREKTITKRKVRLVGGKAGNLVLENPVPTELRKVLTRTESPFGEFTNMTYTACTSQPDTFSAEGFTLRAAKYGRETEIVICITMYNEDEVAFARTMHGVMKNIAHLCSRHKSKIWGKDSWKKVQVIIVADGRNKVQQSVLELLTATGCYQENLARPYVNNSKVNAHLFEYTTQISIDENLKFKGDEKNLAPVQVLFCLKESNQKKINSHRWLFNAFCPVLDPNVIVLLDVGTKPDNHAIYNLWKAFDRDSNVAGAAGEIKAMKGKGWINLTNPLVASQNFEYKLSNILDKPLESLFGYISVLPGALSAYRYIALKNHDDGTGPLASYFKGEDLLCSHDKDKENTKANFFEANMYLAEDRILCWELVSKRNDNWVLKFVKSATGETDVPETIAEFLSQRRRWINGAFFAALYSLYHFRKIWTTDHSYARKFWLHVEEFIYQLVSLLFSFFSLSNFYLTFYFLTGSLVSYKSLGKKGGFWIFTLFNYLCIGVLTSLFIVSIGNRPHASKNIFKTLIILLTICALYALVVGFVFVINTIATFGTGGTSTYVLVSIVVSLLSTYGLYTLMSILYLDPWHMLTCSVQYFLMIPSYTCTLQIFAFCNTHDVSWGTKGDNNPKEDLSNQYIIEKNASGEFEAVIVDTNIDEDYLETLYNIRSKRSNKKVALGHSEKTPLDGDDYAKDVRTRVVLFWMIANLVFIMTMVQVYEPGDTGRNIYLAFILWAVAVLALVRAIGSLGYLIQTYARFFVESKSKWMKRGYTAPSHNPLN
# T1 sequence (P14180 whole entry): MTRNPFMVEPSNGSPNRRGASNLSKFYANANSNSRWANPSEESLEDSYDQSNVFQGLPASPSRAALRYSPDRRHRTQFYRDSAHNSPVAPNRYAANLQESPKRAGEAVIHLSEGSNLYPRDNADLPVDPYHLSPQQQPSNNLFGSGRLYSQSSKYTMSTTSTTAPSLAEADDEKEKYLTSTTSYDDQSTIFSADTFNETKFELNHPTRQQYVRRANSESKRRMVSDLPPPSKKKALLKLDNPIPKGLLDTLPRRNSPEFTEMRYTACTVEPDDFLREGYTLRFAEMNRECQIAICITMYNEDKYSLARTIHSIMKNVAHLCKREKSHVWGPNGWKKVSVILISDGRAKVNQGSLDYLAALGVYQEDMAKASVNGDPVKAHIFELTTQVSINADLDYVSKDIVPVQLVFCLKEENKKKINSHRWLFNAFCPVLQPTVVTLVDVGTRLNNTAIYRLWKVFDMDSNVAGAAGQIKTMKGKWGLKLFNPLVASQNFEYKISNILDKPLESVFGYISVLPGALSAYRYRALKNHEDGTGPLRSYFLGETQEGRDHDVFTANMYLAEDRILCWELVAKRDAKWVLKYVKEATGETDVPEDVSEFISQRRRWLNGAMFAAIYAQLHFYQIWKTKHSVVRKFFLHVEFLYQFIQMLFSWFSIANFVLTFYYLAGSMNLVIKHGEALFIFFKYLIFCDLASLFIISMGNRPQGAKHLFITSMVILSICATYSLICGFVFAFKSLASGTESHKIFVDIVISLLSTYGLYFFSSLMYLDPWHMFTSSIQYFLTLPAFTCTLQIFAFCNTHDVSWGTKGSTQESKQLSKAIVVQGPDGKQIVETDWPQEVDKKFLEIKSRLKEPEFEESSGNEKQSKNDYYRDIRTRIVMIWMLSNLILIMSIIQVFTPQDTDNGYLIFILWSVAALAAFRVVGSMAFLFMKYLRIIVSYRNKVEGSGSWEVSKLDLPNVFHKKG
Substance,Relative activity Enzyme 2 [1],Relative activity Enzyme 1 [2]
"13-(3,4,5-Trifluorobenzyl)-9-O-butylberberrubine iodide [Compound No. 27]","6 (compounds having the inhibitory activity at ½, ¼ and ⅛ lower concentrations than that of polyoxin D were given the values of 6, 7 and 8, respectively)","3 (Compounds having the inhibitory activity at 2-fold, 4-fold, 8-fold and 16-fold higher concentrations than that of polyoxin D were given the values of 4, 3, 2 and 1, respectively)"
"13-(3,4,5-Trifluorobenzyl)-9-O-hexylberberrubine chloride [Compound No. 60]",5 (A compound having the same inhibitory activity as that of polyoxin D at the same concentration was given the value 5),"2 (Compounds having the inhibitory activity at 2-fold, 4-fold, 8-fold and 16-fold higher concentrations than that of polyoxin D were given the values of 4, 3, 2 and 1, respectively)"
"13-(3,4,5-Trifluorobenzyl)-9-O-hexylberberrubine iodide [Compound No. 28]",5 (A compound having the same inhibitory activity as that of polyoxin D at the same concentration was given the value 5),"2 (Compounds having the inhibitory activity at 2-fold, 4-fold, 8-fold and 16-fold higher concentrations than that of polyoxin D were given the values of 4, 3, 2 and 1, respectively)"
"13-(3,4,5-Trifluorobenzyl)berberrubine [Compound No. 1]","3 (Compounds having the inhibitory activity at 2-fold, 4-fold, 8-fold and 16-fold higher concentrations than that of polyoxin D were given the values of 4, 3, 2 and 1, respectively)","1 (Compounds having the inhibitory activity at 2-fold, 4-fold, 8-fold and 16-fold higher concentrations than that of polyoxin D were given the values of 4, 3, 2 and 1, respectively)"
"13-(3,4,5-Trimethoxybenzyl)-9-O-butylberberrubine chloride [Compound No. 62]",5 (A compound having the same inhibitory activity as that of polyoxin D at the same concentration was given the value 5),"2 (Compounds having the inhibitory activity at 2-fold, 4-fold, 8-fold and 16-fold higher concentrations than that of polyoxin D were given the values of 4, 3, 2 and 1, respectively)"
"13-(3,4,5-Trimethoxybenzyl)-9-O-hexylberberrubine chloride [Compound No. 63]","4 (Compounds having the inhibitory activity at 2-fold, 4-fold, 8-fold and 16-fold higher concentrations than that of polyoxin D were given the values of 4, 3, 2 and 1, respectively)","2 (Compounds having the inhibitory activity at 2-fold, 4-fold, 8-fold and 16-fold higher concentrations than that of polyoxin D were given the values of 4, 3, 2 and 1, respectively)"
"13-(3,4,5-Trimethoxybenzyl)-9-O-hexylberberrubine iodide [Compound No. 31]","4 (Compounds having the inhibitory activity at 2-fold, 4-fold, 8-fold and 16-fold higher concentrations than that of polyoxin D were given the values of 4, 3, 2 and 1, respectively)","2 (Compounds having the inhibitory activity at 2-fold, 4-fold, 8-fold and 16-fold higher concentrations than that of polyoxin D were given the values of 4, 3, 2 and 1, respectively)"
"13-(3,4,5-Trimethoxybenzyl)berberrubine [Compound No. 2]","3 (Compounds having the inhibitory activity at 2-fold, 4-fold, 8-fold and 16-fold higher concentrations than that of polyoxin D were given the values of 4, 3, 2 and 1, respectively)","1 (Compounds having the inhibitory activity at 2-fold, 4-fold, 8-fold and 16-fold higher concentrations than that of polyoxin D were given the values of 4, 3, 2 and 1, respectively)"
"13-(3,4,5-trifluorobenzyl)-9-O-butylberberrubine chloride [Compound No. 59]",5 (A compound having the same inhibitory activity as that of polyoxin D at the same concentration was given the value 5),"3 (Compounds having the inhibitory activity at 2-fold, 4-fold, 8-fold and 16-fold higher concentrations than that of polyoxin D were given the values of 4, 3, 2 and 1, respectively)"
"13-(3,4,5-trimethoxybenzyl)-9-O-butylberberrubine iodide [Compound No. 30]",5 (A compound having the same inhibitory activity as that of polyoxin D at the same concentration was given the value 5),"2 (Compounds having the inhibitory activity at 2-fold, 4-fold, 8-fold and 16-fold higher concentrations than that of polyoxin D were given the values of 4, 3, 2 and 1, respectively)"
13-(4-Isopropylbenzyl)berberrubine [Compound No. 6],"4 (Compounds having the inhibitory activity at 2-fold, 4-fold, 8-fold and 16-fold higher concentrations than that of polyoxin D were given the values of 4, 3, 2 and 1, respectively)","2 (Compounds having the inhibitory activity at 2-fold, 4-fold, 8-fold and 16-fold higher concentrations than that of polyoxin D were given the values of 4, 3, 2 and 1, respectively)"
13-(4-Trifluoromethoxybenzyl)-9-O-butylberberrubine chloride [Compound No. 65],"6 (compounds having the inhibitory activity at ½, ¼ and ⅛ lower concentrations than that of polyoxin D were given the values of 6, 7 and 8, respectively)","3 (Compounds having the inhibitory activity at 2-fold, 4-fold, 8-fold and 16-fold higher concentrations than that of polyoxin D were given the values of 4, 3, 2 and 1, respectively)"
13-(4-Trifluoromethoxybenzyl)-9-O-butylberberrubine iodide [Compound No. 33],"6 (compounds having the inhibitory activity at ½, ¼ and ⅛ lower concentrations than that of polyoxin D were given the values of 6, 7 and 8, respectively)","3 (Compounds having the inhibitory activity at 2-fold, 4-fold, 8-fold and 16-fold higher concentrations than that of polyoxin D were given the values of 4, 3, 2 and 1, respectively)"
13-(4-Trifluoromethoxybenzyl)-9-O-hexylberberrubine chloride [Compound No. 66],5 (A compound having the same inhibitory activity as that of polyoxin D at the same concentration was given the value 5),"2 (Compounds having the inhibitory activity at 2-fold, 4-fold, 8-fold and 16-fold higher concentrations than that of polyoxin D were given the values of 4, 3, 2 and 1, respectively)"
13-(4-Trifluoromethoxybenzyl)-9-O-hexylberberrubine iodide [Compound No. 34],5 (A compound having the same inhibitory activity as that of polyoxin D at the same concentration was given the value 5),"2 (Compounds having the inhibitory activity at 2-fold, 4-fold, 8-fold and 16-fold higher concentrations than that of polyoxin D were given the values of 4, 3, 2 and 1, respectively)"
